Some test systems named below: HCT-15; LOX IMVI; K562; NCI-H460; BT-549; HT-29; ACHN; UO-31; T47D; SK-MEL-5; NCI-H522; EKVX; PC-3; 786-0; SF-268; IGROV-1; UACC-62; MDA-MB-435; UACC-257; Hs-578T.
Holding throughout (experiment): NCI tumour cell line growth inhibition, 48 h

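Each compound was tested at five concentrations against cells in 96-well plates for 48 hours. GI50 = concentration required for 50% inhibition of growth.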 Active and inactive are the calls of the source. Rule as the data show it: active = GI50 up to about 1.1 µM and inactive = higher.

With `O=C1C=CC(=O)N1n1c(Cc2ccccc2)n[nH]c1=O`, the GI50 with HCT-15 is > 100 µM; with LOX IMVI, > 100 µM (inactive); in the assay on K562, > 100 µM (inactive); in the assay with NCI-H460 it was > 100 µM (inactive); with BT-549, > 100 µM (inactive); in the assay with HT-29, > 100 µM (inactive). Further, the GI50 in the assay on ACHN, in the assay with UO-31, in the assay with T47D, in the assay with SK-MEL-5, in the assay on NCI-H522 and with EKVX was > 100 µM (inactive) each time. Further, the GI50 in the assay with PC-3, with 786-0, in the assay with SF-268, in the assay with IGROV-1, in the assay on UACC-62 and in the assay on MDA-MB-435 was > 100 µM (inactive) each time. Further, the GI50 with UACC-257 and with Hs-578T was > 100 µM (inactive) throughout.

As to `CCNC(=S)NNC(=O)CSc1nc2ccc(I)cc2c(=O)n1Cc1ccccc1`, the GI50 with HCT-15 was 14.7 µM; in the assay on LOX IMVI it was 34.9 µM (inactive); in the assay on K562 it was 10.6 µM (inactive); with NCI-H460 it was 12.6 µM (inactive); in the assay with BT-549, > 54.1 µM (inactive); with HT-29, 18.1 µM (inactive). For the same compound, the GI50 in the assay with ACHN is 5.74 µM (inactive); in the assay with UO-31 it was 0.0299 µM (active); in the assay on T47D it was 5.27 µM (inactive); in the assay with SK-MEL-5, 8.65 µM (inactive); in the assay with NCI-H522, 13.1 µM (inactive); with EKVX, 15.8 µM (inactive). The GI50 was 18.5 µM (inactive) with PC-3; 29.2 µM (inactive) in the assay with 786-0; 31.9 µM (inactive) with SF-268; 14.6 µM (inactive) with IGROV-1; > 27.6 µM (inactive) in the assay on UACC-62; 12.9 µM (inactive) in the assay on MDA-MB-435. Further, the results for the GI50 in the assay with UACC-257 and in the assay with Hs-578T were 17.7 µM (inactive) and 29.7 µM (inactive), respectively.

`COc1cccc(C(=O)N[C@@H]2[C@H](O)[C@@H](CO)O[C@H]2n2cnc3c(N)ncnc32)c1`: the GI50 with HCT-15 is > 100 µM; in the assay with LOX IMVI, > 100 µM (inactive); with K562 it was > 100 µM (inactive); with NCI-H460 it was > 100 µM (inactive); in the assay on BT-549, > 100 µM (inactive); in the assay with HT-29 it was > 100 µM (inactive). Further, the GI50 in the assay on ACHN, with UO-31, with T47D, in the assay with SK-MEL-5, in the assay on NCI-H522 and in the assay on EKVX was > 100 µM (inactive) each time. The GI50 in the assay on PC-3, with 786-0, with SF-268, with IGROV-1, in the assay with UACC-62 and with MDA-MB-435 was > 100 µM (inactive) throughout. Also, the GI50 in the assay on UACC-257 and in the assay on Hs-578T was > 100 µM (inactive) each time.

Regarding `COc1ccc(/C=C2\CCC(CNc3ccc(S(N)(=O)=O)cc3)C2=O)cc1` (stereo not given), the GI50 with HCT-15 was 4.71 µM; in the assay with LOX IMVI, 9.89 µM (inactive); in the assay on K562, 1.51 µM (inactive); with NCI-H460, 31.3 µM (inactive); in the assay with BT-549, 18.7 µM (inactive); with HT-29, 10.2 µM (inactive). The GI50 in the assay on ACHN is 23.1 µM (inactive); with UO-31 it was 5.71 µM (inactive); in the assay on T47D, 17 µM (inactive); in the assay with SK-MEL-5, 16.3 µM (inactive); in the assay on NCI-H522 it was 4.52 µM (inactive); in the assay on EKVX it was 27.6 µM (inactive). The GI50 with PC-3 was 21.9 µM (inactive); in the assay with 786-0 it was 4.9 µM (inactive); in the assay on SF-268, 22.5 µM (inactive); in the assay on IGROV-1, 20 µM (inactive); in the assay with UACC-62, 24.5 µM (inactive); in the assay on MDA-MB-435, 18.3 µM (inactive). Moreover, the figures for the GI50 with UACC-257 and with Hs-578T were 20 µM (inactive) and 43 µM (inactive), respectively.

Regarding `CCOC(=O)c1nc[nH]c1/N=N/N(C)N`, the GI50 is 91.4 µM in the assay on HCT-15; 92.5 µM (inactive) in the assay with LOX IMVI; > 10 µM (inactive) in the assay on K562; 25.3 µM (inactive) in the assay on NCI-H460; > 100 µM (inactive) in the assay with BT-549; 61.1 µM (inactive) with HT-29. Moreover, the GI50 in the assay with ACHN is > 100 µM (inactive); with UO-31 it was > 100 µM (inactive); in the assay on T47D it was 20.8 µM (inactive); in the assay on SK-MEL-5, > 100 µM (inactive); in the assay on NCI-H522, 22.4 µM (inactive); in the assay on EKVX, > 100 µM (inactive). Further, the GI50 in the assay with PC-3 was > 100 µM (inactive); in the assay with 786-0, 84.7 µM (inactive); in the assay with SF-268 it was > 100 µM (inactive); with IGROV-1, > 100 µM (inactive); in the assay with UACC-62, > 100 µM (inactive); with MDA-MB-435, > 100 µM (inactive). Further, the GI50 in the assay on UACC-257 and with Hs-578T was > 100 µM (inactive) each time.

Regarding `O=C(O)c1cc(-c2ccc(-c3ccccc3)cc2)nc2cc3ccccc3cc12`, the GI50 is 8.15 µM with HCT-15; 66.7 µM (inactive) in the assay on LOX IMVI; 14.2 µM (inactive) with K562; 6.35 µM (inactive) in the assay on NCI-H460; 35.9 µM (inactive) in the assay on BT-549; 38 µM (inactive) in the assay with HT-29. The GI50 was 46.6 µM (inactive) in the assay with ACHN; 61.9 µM (inactive) with UO-31; 49.5 µM (inactive) with T47D; 26.4 µM (inactive) in the assay with SK-MEL-5; 27.7 µM (inactive) in the assay with NCI-H522; 57.1 µM (inactive) in the assay on EKVX. For the same compound, the GI50 is 17.5 µM (inactive) in the assay on PC-3; 25.9 µM (inactive) with 786-0; 35.2 µM (inactive) in the assay on SF-268; 26.4 µM (inactive) in the assay with IGROV-1; 25.5 µM (inactive) in the assay with UACC-62; 72.9 µM (inactive) with MDA-MB-435. The GI50 with UACC-257 is > 100 µM (inactive); in the assay on Hs-578T it was 32.3 µM (inactive).

For the compound `COc1ccc2c(cnc3c4cc(OC)c(OC)cc4ccc23)c1`, the GI50 in the assay with HCT-15 is > 100 µM; with LOX IMVI, > 100 µM (inactive); in the assay on K562, > 100 µM (inactive); with NCI-H460, > 100 µM (inactive); in the assay on BT-549 it was > 100 µM (inactive); in the assay on HT-29 it was > 100 µM (inactive). The GI50 in the assay on ACHN, in the assay on UO-31, in the assay with T47D, in the assay with SK-MEL-5, in the assay on NCI-H522 and in the assay on EKVX was > 100 µM (inactive) throughout. Further, the GI50 in the assay on PC-3, in the assay with 786-0, in the assay on SF-268, in the assay on IGROV-1, in the assay with UACC-62 and in the assay on MDA-MB-435 was > 100 µM (inactive) each time. The GI50 in the assay with UACC-257 and in the assay on Hs-578T was > 100 µM (inactive) in each case.

On to `COc1ccc(CCN2CCN(CCCc3ccccc3)CC2)cc1`, for which the GI50 with HCT-15 is 37.7 µM; in the assay with LOX IMVI it was > 100 µM (inactive); in the assay on K562 it was 38.6 µM (inactive); with NCI-H460 it was 84.5 µM (inactive); in the assay with BT-549, 70.5 µM (inactive); in the assay with HT-29, 33.5 µM (inactive). For the same compound, the GI50 in the assay on ACHN was > 100 µM (inactive); in the assay with UO-31, 55.6 µM (inactive); in the assay on T47D, 34 µM (inactive); in the assay with SK-MEL-5, 23.2 µM (inactive); in the assay with NCI-H522, > 100 µM (inactive); in the assay on EKVX, > 100 µM (inactive). The GI50 in the assay with PC-3 is > 100 µM (inactive); in the assay with 786-0, > 100 µM (inactive); with SF-268, > 100 µM (inactive); in the assay with IGROV-1 it was 96.8 µM (inactive); with UACC-62, > 100 µM (inactive); with MDA-MB-435 it was > 100 µM (inactive). Further, the values for the GI50 in the assay on UACC-257 and in the assay on Hs-578T were 77.3 µM (inactive) and > 100 µM (inactive), respectively.

Take `O=C1/C(=C/c2ccc(O)cc2)CC/C1=C\c1ccc(O)cc1`: the GI50 was > 100 µM in the assay on HCT-15; > 100 µM (inactive) with LOX IMVI; > 100 µM (inactive) in the assay on K562; 44.7 µM (inactive) in the assay on NCI-H460; > 100 µM (inactive) in the assay with BT-549; > 100 µM (inactive) in the assay on HT-29. Besides, the GI50 with ACHN is 6.31 µM (inactive); in the assay on UO-31, 51.2 µM (inactive); in the assay with T47D it was > 95.1 µM (inactive); in the assay on SK-MEL-5, > 100 µM (inactive); in the assay with NCI-H522, 49.4 µM (inactive); in the assay with EKVX, 99.8 µM (inactive). Further, the GI50 with PC-3 was 59.6 µM (inactive); in the assay with 786-0, > 41 µM (inactive); with SF-268 it was > 95.1 µM (inactive); in the assay on IGROV-1 it was > 100 µM (inactive); in the assay on UACC-62 it was 13.3 µM (inactive); in the assay with MDA-MB-435, > 100 µM (inactive). Moreover, the GI50 in the assay with UACC-257 and in the assay on Hs-578T was > 100 µM (inactive) each time.

As for `Clc1ccc(Cl)c(Nc2ccnc(SCc3ccccc3)n2)c1`, the GI50 was > 100 µM in the assay with HCT-15; 46.6 µM (inactive) with LOX IMVI; > 100 µM (inactive) with K562; 54.8 µM (inactive) with NCI-H460; > 100 µM (inactive) with BT-549; 69.8 µM (inactive) in the assay with HT-29. In addition, the GI50 is > 100 µM (inactive) in the assay with ACHN; > 100 µM (inactive) in the assay on UO-31; 32.4 µM (inactive) with T47D; > 100 µM (inactive) in the assay with SK-MEL-5; 84.9 µM (inactive) in the assay on NCI-H522; 57.9 µM (inactive) in the assay with EKVX. The GI50 with PC-3, in the assay on 786-0, in the assay on SF-268, in the assay on IGROV-1, in the assay on UACC-62 and in the assay with MDA-MB-435 was > 100 µM (inactive) each time. The GI50 in the assay on UACC-257 and with Hs-578T was > 100 µM (inactive) throughout.
